Laboratory results from patent US20070066516A1, “Compounds comprising cyclized somatostatin receptor binding peptides” (priority 2005, published 2007).
Where a SMILES comes first, the peptide text is derived from it. Side-chain parts run from the residue outwards. [ ]: non-standard residue; d: D form. The star is where a group is joined. X1 = CC(C(=O)*)N1CCN(CC(=O)O)CCN(CC(=O)O)CCN(CC(=O)O)CC1; Tpi = O=C(O)[C@@H]1Cc2c([nH]c3ccccc23)CN1; Dip = N[C@H](C(=O)O)C(c1ccccc1)c1ccccc1; Phe(4-F) = N[C@@H](Cc1ccc(F)cc1)C(=O)O; 1Nal = N[C@@H](Cc1cccc2ccccc12)C(=O)O; 2Nal = N[C@@H](Cc1ccc2ccccc2c1)C(=O)O; Ala(cPr) = N[C@@H](CC1CC1)C(=O)O; NMeF = CN[C@@H](Cc1ccccc1)C(=O)O; 4Pal = N[C@@H](Cc1ccncc1)C(=O)O; Thz = O=C(O)[C@@H]1CSCN1; Dap = NC[C@H](N)C(=O)O

Columns and labels:
SSTR2 = SSTR2 (Homo sapiens, UniProt P30874); experiment: Radioligand binding assay on membranes of CHO-K1 cells expressing SSTR2; details: membranes from CHO-K1 cells stably expressing cloned somatostatin receptor 2
Sequence of SSTR2 (P30874 whole entry): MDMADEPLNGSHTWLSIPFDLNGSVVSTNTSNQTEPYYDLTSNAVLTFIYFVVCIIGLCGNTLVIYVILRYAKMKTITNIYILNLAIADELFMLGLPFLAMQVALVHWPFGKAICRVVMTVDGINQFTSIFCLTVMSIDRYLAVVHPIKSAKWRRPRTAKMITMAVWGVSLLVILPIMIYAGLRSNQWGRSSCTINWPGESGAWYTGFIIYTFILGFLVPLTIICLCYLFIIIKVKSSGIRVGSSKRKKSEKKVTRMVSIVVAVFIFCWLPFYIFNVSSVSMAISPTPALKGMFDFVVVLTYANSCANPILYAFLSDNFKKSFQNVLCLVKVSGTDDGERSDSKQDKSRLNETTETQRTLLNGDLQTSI
Procedure: (§1) Radiolabeling binding assays were carried out as described in the prior art like, e.g. in Gazal S. et al (2002) J. Med. Chem. 45: 1665-1671. The radioligand binding assays were carried out on membranes prepared from CHO-K1 cells stably expressing individually cloned somatostatin receptors 2 or 5 (SSTR2 or SSTR5). Cells were grown for 2 days for almost confluence and were washed and scraped into 50 mM ice-cold Tris-HCl, pH 7.8, containing 1 mM EGTA, 5 mM MgCl2, […], 0.1 mM PMSF, and 0.5 mg/mL aprotinin (buffer A) and were centrifuged at 10,000 rpm for 10 min at 4° C. (in Sorvall RC 26 Plus ultracentrifuge, rotor SS-34). The pellet was resuspended in buffer A and homogenized with a Polytron PT 1200 homogenizer (Kinematica AG, Switzerland) (setting 2, 3 strokes 10 s each). The homogenate was then centrifuged at 20 000 rpm for 20 min at 4° C. The pellet was resuspended in buffer A and homogenized using the Polytron homogenizer (setting 2, 3 strokes 5 s each). The protein content was determined by Bradford, and the membrane preparation was diluted in buffer A containing 1 mg/mL bovine serum albumin (BSA) to a final 0.2 or 0.4 mg/mL membrane protein (depending on the specific somatostatin receptor used).
(§2) The radioligand binding assay was performed in 96 well microtiter plates (Maxisorp plates, Nunc, Denmark). Cell membranes ([…] protein) were incubated with the various cyclized peptides indicated in Table 1 & 2, which comprised a lanthanide chelation unit, in a final volume of 250 μL, for 45 min. at room temperature in the presence or absence of competing peptides. Nonspecific binding was defined as the radioactivity remaining bound in the presence of […] somatostatin. At the end of the binding, reaction free radioligand was separated from bound Ligand by rapid filtration through UniFilter GF/C plates preincubated in a solution of 5 g/L polyethyleneimine and 1 g/L BSA. The filtration was performed in Filter-Mate Cell Harvester (Packard Instrument Company, U.S.A.). After filtration, the filters were washed several times with cold buffer A containing 1 mg/mL BSA and allowed to dry overnight at room temperature. Then, bound radioactivity was counted. The binding assays were performed in triplicate wells. Data from radioligand binding were used to generate inhibition curves, and IC50 values were determined for each of the tested peptides. The saturation binding data were analyzed by the method of Scatchard, and IC50 values are expressed as mean±SEM (standard error of the mean).

SSTR5 = SSTR5 (Homo sapiens, UniProt P35346); experiment: Radioligand binding assay on membranes of CHO-K1 cells expressing SSTR5; details: for IC50: membranes from CHO-K1 cells stably expressing cloned somatostatin receptor 5; for Ratio 2/5 in %: ratio of IC50 SSTR2 / IC50 SSTR5 in %
Sequence of SSTR5 (P35346 whole entry): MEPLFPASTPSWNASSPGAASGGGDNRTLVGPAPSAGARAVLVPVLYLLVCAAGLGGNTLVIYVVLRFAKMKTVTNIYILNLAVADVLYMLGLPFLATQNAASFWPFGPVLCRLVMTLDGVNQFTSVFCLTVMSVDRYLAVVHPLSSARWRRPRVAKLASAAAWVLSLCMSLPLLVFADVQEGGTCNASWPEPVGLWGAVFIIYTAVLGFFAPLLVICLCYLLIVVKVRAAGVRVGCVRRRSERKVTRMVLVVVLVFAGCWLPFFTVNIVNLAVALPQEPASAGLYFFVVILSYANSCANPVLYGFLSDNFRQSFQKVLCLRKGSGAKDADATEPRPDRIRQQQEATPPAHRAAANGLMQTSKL
Procedure: as §1, §2

somatostatin receptor 5 = molecular target: T1, somatostatin receptor 5 (UniProt P35346 1-364, limits assumed); experiment: ratio of IC50 on SSTR2 to IC50 on SSTR5 (reference SSTR2), radioligand competition binding on CHO-K1 membranes
T1 construct: whole, on cells; Assayed as membrane preparation of CHO-K1 cells stably expressing the cloned receptor; also called SSTR5; somatostatin receptor subtype 5
T1 sequence (P35346 whole entry): as above

IC50 (SSTR2) | IC50 (SSTR5) | Ratio 2/5 in % (SSTR5) | Ratio 2/5 in % (somatostatin receptor 5) | Molecule
0.177 nM | 42.2 nM | 0.42% |  | CSCC[C@@H]1NC(=O)[C@H]([C@@H](C)O)NC(=O)[C@H](CCCCN)NC(=O)[C@@H](Cc2c[nH]c3ccccc23)NC(=O)[C@H](C(c2ccccc2)c2ccccc2)NC(=O)[C@H](Cc2ccccc2)N(C)C1=O [P2326, cyclo[DiphenylAla-DTrp-Lys-Thr-Met-(N-Me)Phe]] (cyclo([Dip][dW]KTM[NMeF]))
0.032 nM | 22 nM | 0.15% |  | C[C@@H](O)[C@@H]1NC(=O)[C@H](CCCCN)NC(=O)[C@@H](Cc2c[nH]c3ccccc23)NC(=O)[C@H](Cc2ccc(O)cc2)NC(=O)[C@H](CCS)N(C)C(=O)[C@H](Cc2ccccc2)NC1=O [P1839, cyclo[Tyr-DTrp-Lys-Thr-Phe-(NMe)hCys], reference compound]
 |  | 399.1% |  | CC(C(=O)NCC(=O)NCCCC[C@@H]1NC(=O)[C@H]([C@@H](C)O)NC(=O)[C@H](CCCCN)NC(=O)[C@@H](Cc2c[nH]c3ccccc23)NC(=O)[C@H](Cc2cccc3ccccc23)NC(=O)[C@H](Cc2ccccc2)N(C)C1=O)N1CCN(CC(=O)O)CCN(CC(=O)O)CCN(CC(=O)O)CC1 (stereo partly drawn) [P2323, cyclo[1Nal-DTrp-Lys-Thr-Lys(GlyMeDOTA)-(N-Me)Phe]] (cyclo([1Nal][dW]KTK([Gly-X1])[NMeF]))
 |  | 6.1% |  | CSCC[C@@H]1NC(=O)[C@H]([C@@H](C)O)NC(=O)[C@H](CCCCN)NC(=O)[C@@H](Cc2c[nH]c3ccccc23)NC(=O)[C@H](Cc2ccc(O)cc2)NC(=O)[C@@H]2Cc3c([nH]c4ccccc34)CN2C1=O [P2274, cyclo[Tyr-DTrp-Lys-Thr-Met-Tpi]] (cyclo(Y[dW]KTM[Tpi]))
0.139 nM | 11.6 nM | 1.2% |  | CSCC[C@@H]1NC(=O)[C@H]([C@@H](C)O)NC(=O)[C@H](CCCCN)NC(=O)[C@@H](Cc2c[nH]c3ccccc23)NC(=O)[C@H](Cc2ccc(O)cc2)NC(=O)[C@H](Cc2ccccc2)N(C)C1=O [P2265, cyclo[Tyr-DTrp-Lys-Thr-Met-(NMe)Phe]] (cyclo(Y[dW]KTM[NMeF]))
0.154 nM | 43.3 nM | 0.36% |  | CSCC[C@@H]1NC(=O)[C@H]([C@@H](C)O)NC(=O)[C@H](CCCCN)NC(=O)[C@@H](Cc2c[nH]c3ccccc23)NC(=O)[C@H](Cc2ccncc2)NC(=O)[C@H](Cc2ccccc2)N(C)C1=O [P2281, cyclo[(4)Pal-DTrp-Lys-Thr-Met-(NMe)Phe]] (cyclo([4Pal][dW]KTM[NMeF]))
0.437 nM | 4.17 nM | 10.5% |  | CSCC[C@@H]1NC(=O)[C@H](C(C)C)NC(=O)[C@H](CCCCN)NC(=O)[C@@H](Cc2c[nH]c3ccccc23)NC(=O)[C@H](Cc2cccc3ccccc23)NC(=O)[C@H](Cc2ccccc2)N(C)C1=O [P2329, cyclo[1Nal-DTrp-Lys-Val-Met-(N-Me)Phe]] (cyclo([1Nal][dW]KVM[NMeF]))
0.152 nM | 7.61 nM | 2.0% |  | CSCC[C@@H]1NC(=O)[C@H]([C@@H](C)O)NC(=O)[C@H](CCCCN)NC(=O)[C@@H](Cc2c[nH]c3ccccc23)NC(=O)[C@H](Cc2ccc(F)cc2)NC(=O)[C@H](Cc2ccccc2)N(C)C1=O [P2292, cyclo[Phe(4-F)-DTrp-Lys-Thr-Met-(N-Me)Phe]] (cyclo([Phe(4-F)][dW]KTM[NMeF]))
12.8 nM | 34.5 nM | 37.1% |  | CSCC[C@@H]1NC(=O)[C@H]([C@@H](C)O)NC(=O)[C@H](CCCCN)NC(=O)[C@@H](Cc2c[nH]c3ccccc23)NC(=O)[C@@H]2CSCN2C(=O)[C@H](Cc2ccccc2)NC1=O [P2297, cyclo[ThioPro-DTrp-Lys-Thr-Met-Phe]] (cyclo([Thz][dW]KTMF))
5.58 nM | 15 nM | 37.2% |  | CSCC[C@@H]1NC(=O)[C@H]([C@@H](C)O)NC(=O)[C@H](CCCCN)NC(=O)[C@@H](Cc2c[nH]c3ccccc23)NC(=O)[C@H](Cc2ccc3ccccc3c2)NC(=O)[C@H](Cc2ccccc2)N(C)C1=O [P2279, cyclo[2Nal-Dtrp-Lys-Thr-Met-(N-Me)Phe]] (cyclo([2Nal][dW]KTM[NMeF]))
 |  | 0.96% |  | CSCC[C@@H]1NC(=O)[C@H](CC2CC2)NC(=O)[C@H](CCCCN)NC(=O)[C@@H](Cc2c[nH]c3ccccc23)NC(=O)[C@H](Cc2ccc(O)cc2)NC(=O)[C@H](Cc2ccccc2)N(C)C1=O [P2300, cyclo[Tyr-DTrp-Lys-BAla(cyclopropyl)-Met-(N-Me)Phe]] (cyclo([Ala(cPr)]M[NMeF]Y[dW]K))
 |  | 1.9% |  | CSCC[C@@H]1NC(=O)[C@H](CN)NC(=O)[C@H](CCCCN)NC(=O)[C@@H](Cc2c[nH]c3ccccc23)NC(=O)[C@H](Cc2ccc(O)cc2)NC(=O)[C@H](Cc2ccccc2)N(C)C1=O [P2267, cyclo[Tyr-DTrp-Lys-Dpr-Met-(NMe)Phe]] (cyclo(Y[dW]K[Dap]M[NMeF]))
 |  |  | 1.2% | cyclo(Y[dW]KTM[NMeF]) (SMILES CSCC[C@@H]1NC(=O)[C@H]([C@@H](C)O)NC(=O)[C@H](CCCCN)NC(=O)[C@@H](Cc2c[nH]c3ccccc23)NC(=O)[C@H](Cc2ccc(O)cc2)NC(=O)[C@H](Cc2ccccc2)N(C)C1=O, Cyclic hexapeptide; also called cyclo[Tyr-DTrp-Lys-Thr-Met-(NMe)Phe]) [P2265]
 |  |  | 0.42% | cyclo([Dip][dW]KTM[NMeF]) (SMILES CSCC[C@@H]1NC(=O)[C@H]([C@@H](C)O)NC(=O)[C@H](CCCCN)NC(=O)[C@@H](Cc2c[nH]c3ccccc23)NC(=O)[C@H](C(c2ccccc2)c2ccccc2)NC(=O)[C@H](Cc2ccccc2)N(C)C1=O, Cyclic hexapeptide; also called cyclo[DiphenylAla-DTrp-Lys-Thr-Met-(N-Me)Phe]) [P2326]
 |  |  | 3.2% | cyclo(Y[dW]KVM[NMeF]) (SMILES CSCC[C@@H]1NC(=O)[C@H](C(C)C)NC(=O)[C@H](CCCCN)NC(=O)[C@@H](Cc2c[nH]c3ccccc23)NC(=O)[C@H](Cc2ccc(O)cc2)NC(=O)[C@H](Cc2ccccc2)N(C)C1=O, Cyclic hexapeptide; also called cyclo[Tyr-DTrp-Lys-Val-Met-(NMe)Phe]) [P2266]
 |  |  | 37.1% | cyclo([Thz][dW]KTMF) (SMILES CSCC[C@@H]1NC(=O)[C@H]([C@@H](C)O)NC(=O)[C@H](CCCCN)NC(=O)[C@@H](Cc2c[nH]c3ccccc23)NC(=O)[C@@H]2CSCN2C(=O)[C@H](Cc2ccccc2)NC1=O, Cyclic hexapeptide; also called cyclo[ThioPro-DTrp-Lys-Thr-Met-Phe]) [P2297]
 |  |  | 2% | cyclo([Phe(4-F)][dW]KTM[NMeF]) (SMILES CSCC[C@@H]1NC(=O)[C@H]([C@@H](C)O)NC(=O)[C@H](CCCCN)NC(=O)[C@@H](Cc2c[nH]c3ccccc23)NC(=O)[C@H](Cc2ccc(F)cc2)NC(=O)[C@H](Cc2ccccc2)N(C)C1=O, Cyclic hexapeptide; also called cyclo[Phe(4-F)-DTrp-Lys-Thr-Met-(N-Me)Phe]) [P2292]
 |  |  | 0.36% | cyclo([4Pal][dW]KTM[NMeF]) (SMILES CSCC[C@@H]1NC(=O)[C@H]([C@@H](C)O)NC(=O)[C@H](CCCCN)NC(=O)[C@@H](Cc2c[nH]c3ccccc23)NC(=O)[C@H](Cc2ccncc2)NC(=O)[C@H](Cc2ccccc2)N(C)C1=O, Cyclic hexapeptide; also called cyclo[(4)Pal-DTrp-Lys-Thr-Met-(NMe)Phe]) [P2281]
 |  |  | 27.9% | cyclo([1Nal][dW]KTM[NMeF]) (also: tested peptides comprised a lanthanide chelation unit, not shown, also called cyclo[(1)Nal-DTrp-Lys-Thr-Met-(NMe)Phe]) [P2278]
 |  |  | 10.5% | cyclo([1Nal][dW]KVM[NMeF]) (SMILES CSCC[C@@H]1NC(=O)[C@H](C(C)C)NC(=O)[C@H](CCCCN)NC(=O)[C@@H](Cc2c[nH]c3ccccc23)NC(=O)[C@H](Cc2cccc3ccccc23)NC(=O)[C@H](Cc2ccccc2)N(C)C1=O, Cyclic hexapeptide; also called cyclo[1Nal-DTrp-Lys-Val-Met-(N-Me)Phe]) [P2329]
 |  |  | 37.2% | cyclo([2Nal][dW]KTM[NMeF]) (SMILES CSCC[C@@H]1NC(=O)[C@H]([C@@H](C)O)NC(=O)[C@H](CCCCN)NC(=O)[C@@H](Cc2c[nH]c3ccccc23)NC(=O)[C@H](Cc2ccc3ccccc3c2)NC(=O)[C@H](Cc2ccccc2)N(C)C1=O, Cyclic hexapeptide; also called cyclo[2Nal-Dtrp-Lys-Thr-Met-(N-Me)Phe]) [P2279]
